Experimental data reported in patent publication US12319672B2, “Alpha-D-galactopyranoside derivatives” (Idorsia Pharmaceuticals Ltd, priority 2019, dated 2025).

How the values were obtained:
human Gal-3 (hGal-3) = human Gal-3 (hGal-3) (Homo sapiens (Human), UniProt P17931); assay: Competitive binding assay: binding of biotinylated hGal-3 to microplate-adsorbed asialofetuin (ASF); conditions: Activity on hGal-3; mean values of several measurements
In short: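 Biotinylated hGal-3 (300-1000 ng/mL) bound to ASF-coated wells with serially diluted compound, 3 h at 4° C. After washing, bound protein was detected with streptavidin-peroxidase (80 ng/mL, 1 h, 4° C) and ABTS substrate; IC50 values are means of several measurements.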

human Gal-1 (hGal-1) = assay: Competitive binding assay: binding of biotinylated hGal-1 to microplate-adsorbed asialofetuin (ASF); conditions: Activities on hGal-1; mean values of several measurements
In short: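 Compounds diluted in DMSO competed with biotinylated hGal-3 or hGal-1 (300-1000 ng/mL) for binding to plate-adsorbed asialofetuin for 3 h at 4° C. Bound galectin was detected with streptavidin-peroxidase (80 ng/mL, 1 h, 4° C) and ABTS substrate; IC50 reported as mean of several measurements.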

Sequence of human Gal-3 (hGal-3) (P17931 whole entry): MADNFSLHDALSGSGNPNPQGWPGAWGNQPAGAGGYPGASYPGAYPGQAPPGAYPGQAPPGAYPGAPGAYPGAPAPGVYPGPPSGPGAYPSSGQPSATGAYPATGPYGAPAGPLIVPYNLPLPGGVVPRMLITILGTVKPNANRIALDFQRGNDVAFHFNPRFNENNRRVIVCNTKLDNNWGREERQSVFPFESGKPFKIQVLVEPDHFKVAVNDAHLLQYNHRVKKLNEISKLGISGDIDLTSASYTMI
Sequence of human Gal-1 (hGal-1) (P09382 2-135 limits assumed): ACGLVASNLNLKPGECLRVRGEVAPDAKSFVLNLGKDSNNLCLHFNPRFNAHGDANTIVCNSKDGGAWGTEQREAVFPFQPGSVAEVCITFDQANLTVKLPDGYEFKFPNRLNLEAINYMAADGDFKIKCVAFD

IC50 (human Gal-3 (hGal-3)) | IC50 (human Gal-1 (hGal-1)) | SMILES
200 nM | 27300 nM | CC(C)C(=O)O[C@@H]1[C@@H](n2cc(-c3cc(F)c(F)c(F)c3)nn2)[C@@H](O)[C@@H](CO)O[C@@H]1Cc1cc(C2CCN(C(=O)OC(C)(C)C)CC2)on1 [Example 2.22, tert-butyl 4-(3-(((2R,3R,4S,5R,6R)-5-hydroxy-6-(hydroxymethyl)-3-(isobutyryloxy)-4-(4-(3,4,5-trifluorophenyl)-1H-1,2,3-triazol-1-yl)tetrahydro-2H-pyran-2-yl)methyl)isoxazol-5-yl)piperidine-1-carboxylate]
220 nM | 2050 nM | CC(C)O[C@@H]1[C@@H](n2cc(-c3cc(F)c(F)c(F)c3)nn2)[C@@H](O)[C@@H](CO)O[C@@H]1Cc1cc(C2CCN(C(=O)OC(C)(C)C)CC2)on1 [Example 2.23, tert-butyl 4-(3-(((2R,3R,4S,5R,6R)-5-hydroxy-6-(hydroxymethyl)-3-isopropoxy-4-(4-(3,4,5-trifluorophenyl)-1H-1,2,3-triazol-1-yl)tetrahydro-2H-pyran-2-yl)methyl)isoxazol-5-yl)piperidine-1-carboxylate]
990 nM | 9610 nM | CC(C)O[C@@H]1[C@@H](n2cc(-c3cc(F)c(F)c(F)c3)nn2)[C@@H](O)[C@@H](CO)O[C@@H]1Cc1cc(C2CCNCC2)on1 [Example 2.24, (2R,3R,4S,5R,6R)-2-(hydroxymethyl)-5-isopropoxy-6-((5-(piperidin-4-yl)isoxazol-3-yl)methyl)-4-(4-(3,4,5-trifluorophenyl)-1H-1,2,3-triazol-1-yl)tetrahydro-2H-pyran-3-ol]
200 nM | 4490 nM | OC[C@H]1O[C@H](Cc2cc(C3CCNCC3)on2)[C@H](OCC(F)F)[C@@H](n2cc(-c3cc(F)c(F)c(F)c3)nn2)[C@H]1O [Example 2.26, (2R,3R,4S,5R,6R)-5-(2,2-difluoroethoxy)-2-(hydroxymethyl)-6-((5-(piperidin-4-yl)isoxazol-3-yl)methyl)-4-(4-(3,4,5-trifluorophenyl)-1H-1,2,3-triazol-1-yl)tetrahydro-2H-pyran-3-ol]
24 nM | 5280 nM | Cc1ccc(-c2cn([C@H]3[C@@H](O)[C@@H](CO)O[C@H](Cc4cc(C(C)(C)C)on4)[C@@H]3OCC(=O)O)nn2)c(F)c1F [Example 2.27, 2-(((2R,3R,4S,5R,6R)-2-((5-(tert-butyl)isoxazol-3-yl)methyl)-4-(4-(2,3-difluoro-4-methylphenyl)-1H-1,2,3-triazol-1-yl)-5-hydroxy-6-(hydroxymethyl)tetrahydro-2H-pyran-3-yl)oxy)acetic acid]
110 nM | 2180 nM | CC(C)(C)c1cc(C[C@H]2O[C@H](CO)[C@H](O)[C@H](n3cc(-c4cc(F)c(F)c(F)c4)nn3)[C@H]2OCC(=O)N2CCOCC2)no1 [Example 2.28, 2-(((2R,3R,4S,5R,6R)-2-((5-(tert-butyl)isoxazol-3-yl)methyl)-5-hydroxy-6-(hydroxymethyl)-4-(4-(3,4,5-trifluorophenyl)-1H-1,2,3-triazol-1-yl)tetrahydro-2H-pyran-3-yl)oxy)-1-morpholinoethan-1-one]
17 nM | 2330 nM | CO[C@@H]1[C@@H](n2cc(-c3cc(F)c(F)c(F)c3)nn2)[C@@H](O)[C@@H](CO)O[C@@H]1Cc1cc(C2CCC(NC(=O)[C@@H](NC(=O)OC(C)(C)C)C(C)C)CC2)no1 (stereo partly drawn) [Example 2.29, tert-butyl ((S)-1-(((1R,4S)-4-(5-(((2R,3R,4S,5R,6R)-5-hydroxy-6-(hydroxymethyl)-3-methoxy-4-(4-(3,4,5-trifluorophenyl)-1H-1,2,3-triazol-1-yl)tetrahydro-2H-pyran-2-yl)methyl)isoxazol-3-yl)cyclohexyl)amino)-3-methyl-1-oxobutan-2-yl)carbamate]
72 nM | 1980 nM | CO[C@@H]1[C@@H](n2cc(-c3cc(F)c(F)c(F)c3)nn2)[C@@H](O)[C@@H](CO)O[C@@H]1Cc1cc(C2CCC(NC(=O)[C@@H](N)C(C)C)CC2)no1 (stereo partly drawn) [Example 2.30, (S)-2-amino-N-((1R,4S)-4-(5-(((2R,3R,4S,5R,6R)-5-hydroxy-6-(hydroxymethyl)-3-methoxy-4-(4-(3,4,5-trifluorophenyl)-1H-1,2,3-triazol-1-yl)tetrahydro-2H-pyran-2-yl)methyl)isoxazol-3-yl)cyclohexyl)-3-methylbutanamide]
71 nM | 1740 nM | CC(C)(C)c1cc(C[C@H]2O[C@H](CO)[C@H](O)[C@H](n3cc(-c4cc(F)c(F)c(F)c4)nn3)[C@H]2OCC(=O)O)on1 [Example 2.37, 2-(((2R,3R,4S,5R,6R)-2-((3-(tert-butyl)isoxazol-5-yl)methyl)-5-hydroxy-6-(hydroxymethyl)-4-(4-(3,4,5-trifluorophenyl)-1H-1,2,3-triazol-1-yl)tetrahydro-2H-pyran-3-yl)oxy)acetic acid]
190 nM | 1990 nM | CNC(=O)CO[C@@H]1[C@@H](n2cc(-c3cc(F)c(F)c(F)c3)nn2)[C@@H](O)[C@@H](CO)O[C@@H]1Cc1cc(C(C)(C)C)on1 [Example 2.38, 2-(((2R,3R,4S,5R,6R)-2-((5-(tert-butyl)isoxazol-3-yl)methyl)-5-hydroxy-6-(hydroxymethyl)-4-(4-(3,4,5-trifluorophenyl)-1H-1,2,3-triazol-1-yl)tetrahydro-2H-pyran-3-yl)oxy)-N-methylacetamide]
110 nM | 6680 nM | CC(C)(C)c1cc(C[C@H]2O[C@H](CO)[C@H](O)[C@H](n3cc(-c4cc(F)c(F)c(F)c4)nn3)[C@H]2OCC(=O)N2CC[C@@H](O)C2)no1 [Example 2.39, 2-(((2R,3R,4S,5R,6R)-2-((5-(tert-butyl)isoxazol-3-yl)methyl)-5-hydroxy-6-(hydroxymethyl)-4-(4-(3,4,5-trifluorophenyl)-1H-1,2,3-triazol-1-yl)tetrahydro-2H-pyran-3-yl)oxy)-1-((R)-3-hydroxypyrrolidin-1-yl)ethan-1-one]
130 nM | 4580 nM | CC(C)(C)c1cc(C[C@H]2O[C@H](CO)[C@H](O)[C@H](n3cc(-c4cc(F)c(F)c(F)c4)nn3)[C@H]2OCC(=O)N2CC(O)C2)no1 [Example 2.40, 2-(((2R,3R,4S,5R,6R)-2-((5-(tert-butyl)isoxazol-3-yl)methyl)-5-hydroxy-6-(hydroxymethyl)-4-(4-(3,4,5-trifluorophenyl)-1H-1,2,3-triazol-1-yl)tetrahydro-2H-pyran-3-yl)oxy)-1-(3-hydroxyazetidin-1-yl)ethan-1-one]
100 nM | 5840 nM | CC(C)(C)c1cc(C[C@H]2O[C@H](CO)[C@H](O)[C@H](n3cc(-c4cc(F)c(F)c(F)c4)nn3)[C@H]2OCC(=O)N2CCC(O)CC2)no1 [Example 2.41, 2-(((2R,3R,4S,5R,6R)-2-((5-(tert-butyl)isoxazol-3-yl)methyl)-5-hydroxy-6-(hydroxymethyl)-4-(4-(3,4,5-trifluorophenyl)-1H-1,2,3-triazol-1-yl)tetrahydro-2H-pyran-3-yl)oxy)-1-(4-hydroxypiperidin-1-yl)ethan-1-one]

SMILES | IC50 (human Gal-3 (hGal-3)) | IC50 (human Gal-1 (hGal-1))
CC(C)(C)OC(=O)N1CCC(c2cc(C[C@H]3O[C@H](CO)[C@H](O)[C@H](n4cc(-c5cc(F)c(F)c(F)c5)nn4)[C@H]3OCC(=O)O)no2)CC1 [Example 2.21, 2-(((2R,3R,4S,5R,6R)-2-((5-(1-(tert-butoxycarbonyl)piperidin-4-yl)isoxazol-3-yl)methyl)-5-hydroxy-6-(hydroxymethyl)-4-(4-(3,4,5-trifluorophenyl)-1H-1,2,3-triazol-1-yl)tetrahydro-2H-pyran-3-yl)oxy)acetic acid] | 22 nM | 690 nM
